# From patent EP2818472A1, “Imidazo[4,5-c]pyridine and pyrrolo[3,2-c]pyridine compounds as G-protein-coupled receptor kinase 5 (GRK5) modulators” (Max-Planck-Gesellschaft zur Förderung der Wissenschaften …, priority 2013, dated 2014)
# Test system: beta-TC6 cells
# Test: Insulin HTRF assay (relative activity Ar) in beta-TC6 cells
# Type: cell-based, mouse
# Conditions: Mus musculus, Beta-TC6, 4 h, insulin HTRF, supernatant of beta-TC6 cells, incubation with test compound at 37°C for 2, 3, 4h; read-out: Ar (relative activity)
# Method in brief: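 beta-TC6 cells (15k/well, seeded 24 or 48 h) washed, then exposed to compound in induction buffer (0.5% DMSO final) for 2, 3 or 4 h at 37°C.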
row,Structure (SMILES),Emax [%]
1,"Cn1c(-c2ccccc2)cc2c(Nc3ccc(C(N)=O)cc3)nccc21 [Compound 325, 4-[(1-methyl-2-phenyl-pyrrolo[3,2-c]pyridin-4-yl)amino]benzamide]",30 to 50
2,"CNc1nc2cnc(-c3ccc(N(C)C)cc3)cc2n1Cc1ccccc1 [Compound 525, 1-benzyl-6-(4-dimethylaminophenyl)-N-methyl-imidazo[4,5-c]pyridin-2-amine]",30 to 50
3,"COc1cccc(-c2nc3c(Nc4cccc(C(F)(F)F)c4)nccc3[nH]2)c1 [Compound 373, 2-(3-methoxyphenyl)-N-[3-(trifluoromethyl)phenyl]-1H-imidazo[4,5-c]pyridin-4-amine]",0 to 30
4,"CNc1nc2cnc(Nc3ccc(C(N)=O)cc3)cc2n1-c1ccccc1 [Compound 504, 4-[[2-(methylamino)-1-phenyl-imidazo[4,5-c]pyridin-6-yl]amino]benzamide]",50 to 100
5,"CNc1nc2cnc(Nc3cccc(O)c3)cc2n1-c1ccccc1 [Compound 513, 3-[[2-(methylamino)-1-phenyl-imidazo[4,5-c]pyridin-6-yl]amino]phenol]",50 to 100
6,"CNc1nc2cnc(Nc3ccc(OC)cc3)cc2n1Cc1ccccc1 [Compound 531, 1-benzyl-N6-(4-methoxyphenyl)-N2-methyl-imidazo[4,5-c]pyridine-2,6-diamine]",30 to 50
7,"COc1cc(Nc2nc3cnc(-c4cccc(F)c4)cc3n2C)cc(OC)c1OC [Compound 814, 6-(3-fluorophenyl)-1-methyl-N-(3,4,5-trimethoxyphenyl)imidazo[4,5-c]pyridin-2-amine]",0 to 30
8,"CN(C)C(=O)c1ccc(-c2cc3c(Nc4ccc(C(N)=O)cc4)nccc3n2C)cc1 [Compound 213, 4-[4-(4-carbamoylanilino)-1-methyl-pyrrolo[3,2-c]pyridin-2-yl]-N,N-dimethyl-benzamide]",50 to 100
9,"COc1ccc(Nc2nccc3[nH]c(-c4cccc(OC(F)(F)F)c4)nc23)cc1O [Compound 444, 2-methoxy-5-[[2-[3-(trifluoromethoxy)phenyl]-1H-imidazo[4,5-c]pyridin-4-yl]amino]phenol]",30 to 50
10,"Cn1c(NCC2CCCO2)nc2cnc(Nc3cccc(OC(F)(F)F)c3)cc21 (stereo not shown) [Compound 755, 1-methyl-N2-(tetrahydrofuran-2-ylmethyl)-N6-[3-(trifluoromethoxy)phenyl]imidazo[4,5-c]pyridine-2,6-diamine]",0 to 30
11,"c1cncc(Nc2nccc3[nH]c(-c4cccnc4)cc23)c1 [Compound 234, N,2-bis(3-pyridyl)-1H-pyrrolo[3,2-c]pyridin-4-amine]",50 to 100
12,"COc1cc(CNc2nccc3[nH]c(-c4ccccc4Cl)nc23)cc(OC)c1OC [Compound 460, 2-(2-chlorophenyl)-N-[(3,4,5-trimethoxyphenyl)methyl]-1H-imidazo[4,5-c]pyridin-4-amine]",0 to 30
13,"c1cncc(Nc2nccc3[nH]c(-c4ccco4)nc23)c1 [Compound 465, 2-(2-furyl)-N-(3-pyridyl)-1H-imidazo[4,5-c]pyridin-4-amine]",0 to 30
14,"CS(=O)(=O)c1cccc(Nc2nccc3[nH]c(-c4ccccc4)nc23)c1 [Compound 336, N-(3-methylsulfonylphenyl)-2-phenyl-1H-imidazo[4,5-c]pyridin-4-amine]",30 to 50
15,"Fc1cccc(-c2nc3c(Nc4cccc(Oc5ccccc5)c4)nccc3[nH]2)c1 [Compound 408, 2-(3-fluorophenyl)-N-(3-phenoxyphenyl)-1H-imidazo[4,5-c]pyridin-4-amine]",0 to 30
16,"Fc1cccc(-c2cc3cnc(Nc4ccc(F)c(Cl)c4)cc3[nH]2)c1 [Compound 9, N-(3-chloro-4-fluoro-phenyl)-2-(3-fluorophenyl)-1H-pyrrolo[3,2-c]pyridin-6-amine]",0 to 30
17,"CN(C)c1ccc(-c2cc3c(cn2)nc(Nc2ccccc2)n3C)cc1 [Compound 631, 6-(4-dimethylaminophenyl)-1-methyl-N-phenyl-imidazo[4,5-c]pyridin-2-amine]",> 100
18,"c1ccc(CNc2nccc3[nH]c(-c4cccnc4)nc23)cc1 [Compound 360, N-benzyl-2-(3-pyridyl)-1H-imidazo[4,5-c]pyridin-4-amine]",0 to 30
19,"Oc1ccc(Nc2nccc3[nH]c(-c4cccc(F)c4)cc23)cc1 [Compound 199, 4-[[2-(3-fluorophenyl)-1H-pyrrolo[3,2-c]pyridin-4-yl]amino]phenol]",50 to 100
20,"CNc1nc2cnc(Nc3ccc(OC)c(OC)c3)cc2n1Cc1ccc(OC)c(OC)c1 [Compound 665, N6-(3,4-dimethoxyphenyl)-1-[(3,4-dimethoxyphenyl)methyl]-N2-methyl-imidazo[4,5-c]pyridine-2,6-diamine]",50 to 100
21,"CNc1nc2cnc(Nc3cccc(F)c3)cc2n1Cc1ccc(OC)c(OC)c1 [Compound 674, 1-[(3,4-dimethoxyphenyl)methyl]-N6-(3-fluorophenyl)-N2-methyl-imidazo[4,5-c]pyridine-2,6-diamine]",30 to 50
22,"COc1cc(Nc2cc3[nH]c(-c4cncn4C)cc3cn2)cc(OC)c1OC [Compound 100, 2-(3-methylimidazol-4-yl)-N-(3,4,5-trimethoxyphenyl)-1H-pyrrolo[3,2-c]pyridin-6-amine]",> 100

row,Structure (SMILES),Emax [%]
1,"CNc1nc2cnc(-c3ccccc3Oc3ccccc3)cc2n1Cc1ccccc1 [Compound 529, 1-benzyl-N-methyl-6-(2-phenoxyphenyl)imidazo[4,5-c]pyridin-2-amine]",30 to 50
2,"Cn1cc(-c2cc3cnc(Nc4cccc(OC(F)(F)F)c4)cc3n2C)cn1 [Compound 146, 1-methyl-2-(1-methylpyrazol-4-yl)-N-[3-(trifluoromethoxy)phenyl]pyrrolo[3,2-c]pyridin-6-amine]",30 to 50
3,"CNc1nc2cnc(-c3ccc(O)c(OC)c3)cc2n1C [Compound 612, 2-methoxy-4-[1-methyl-2-(methylamino)imidazo[4,5-c]pyridin-6-yl]phenol]",50 to 100
4,"CNc1nc2cnc(Nc3ccc(OC)cc3)cc2n1CCN1CCOCC1 [Compound 557, N6-(4-methoxyphenyl)-N2-methyl-1-(2-morpholinoethyl)imidazo[4,5-c]pyridine-2,6-diamine]",50 to 100
5,"CS(=O)(=O)c1ccc(Nc2nccc3[nH]c(-c4cccc(F)c4)cc23)cc1 [Compound 207, 2-(3-fluorophenyl)-N-(4-methylsulfonylphenyl)-1H-pyrrolo[3,2-c]pyridin-4-amine]",50 to 100
6,"COc1ccc(CNc2nc3cnc(Nc4ccc(OC)c(OC)c4)cc3n2C)cc1OC [Compound 603, N6-(3,4-dimethoxyphenyl)-N2-[(3,4-dimethoxyphenyl)methyl]-1-methyl-imidazo[4,5-c]pyridine-2,6-diamine]",50 to 100
7,"CNc1nc2cnc(-c3cccc(C(=O)NCCO)c3)cc2n1Cc1ccccc1 [Compound 794, 3-[1-benzyl-2-(methylamino)imidazo[4,5-c]pyridin-6-yl]-N-(2-hydroxyethyl)benzamide]",0 to 30
8,"COc1ccc(CNc2nc3cnc(Nc4ccc(N5CCN(C)CC5)cc4)cc3n2C)cc1OC [Compound 605, N2-[(3,4-dimethoxyphenyl)methyl]-1-methyl-N6-[4-(4-methylpiperazin-1-yl)phenyl]imidazo[4,5-c]pyridine-2,6-diamine]",50 to 100
9,"Cn1c(-c2ccco2)nc2cnc(-c3cccc(O)c3)cc21 [Compound 736, 3-[2-(2-furyl)-1-methyl-imidazo[4,5-c]pyridin-6-yl]phenol]",50 to 100
10,"Clc1ccccc1Nc1cc2[nH]c(-c3cccnc3)cc2cn1 [Compound 78, N-(2-chlorophenyl)-2-(3-pyridyl)-1H-pyrrolo[3,2-c]pyridin-6-amine]",50 to 100
11,"c1cc(Nc2nccc3[nH]c(-c4ccsc4)cc23)ccn1 [Compound 258, N-(4-pyridyl)-2-(3-thienyl)-1H-pyrrolo[3,2-c]pyridin-4-amine]",> 100
12,"CN(C)C(=O)c1ccc(-c2cc3cnc(Nc4cccc(N(C)C)c4)cc3n2C)cc1 [Compound 50, 4-[6-[3-(dimethylamino)anilino]-1-methyl-pyrrolo[3,2-c]pyridin-2-yl]-N,N-dimethyl-benzamide]",50 to 100
13,"COc1cc(Nc2cc3[nH]c(-c4ccccc4)cc3cn2)cc(OC)c1OC [Compound 174, 2-phenyl-N-(3,4,5-trimethoxyphenyl)-1H-pyrrolo[3,2-c]pyridin-6-amine]",50 to 100
14,"COc1cc(OC)cc(-c2cc3c(Nc4ccc(C(N)=O)cc4)nccc3[nH]2)c1 [Compound 290, 4-[[2-(3,5-dimethoxyphenyl)-1H-pyrrolo[3,2-c]pyridin-4-yl]amino]benzamide]",50 to 100
15,"COc1ccccc1Nc1nc2cnc(-c3cccnc3)cc2n1C [Compound 613, N-(2-methoxyphenyl)-1-methyl-6-(3-pyridyl)imidazo[4,5-c]pyridin-2-amine]",50 to 100
16,"Cc1ccc(-c2nc3ccncc3[nH]2)cc1 [Compound 774, 2-(p-tolyl)-3H-imidazo[4,5-c]pyridine]",0 to 30
17,"COc1cc(Nc2cc3c(cn2)cc(-c2cccc(N(C)C(C)=O)c2)n3C)cc(OC)c1OC [Compound 158, N-methyl-N-[3-[1-methyl-6-(3,4,5-trimethoxyanilino)pyrrolo[3,2-c]pyridin-2-yl]phenyl]acetamide]",50 to 100
18,"Cn1c(NCc2ccccc2F)nc2cnc(-c3ccc(CO)cc3)cc21 [Compound 655, [4-[2-[(2-fluorophenyl)methylamino]-1-methyl-imidazo[4,5-c]pyridin-6-yl]phenyl]methanol]",50 to 100
19,"CN1CCN(c2ccc(Nc3nccc4[nH]c(-c5ccsc5)cc34)cc2)CC1 [Compound 257, N-[4-(4-methylpiperazin-1-yl)phenyl]-2-(3-thienyl)-1H-pyrrolo[3,2-c]pyridin-4-amine]",30 to 50
20,"COc1ccccc1-c1cc2c(Nc3cccc(NC(C)=O)c3)nccc2[nH]1 [Compound 299, N-[3-[[2-(2-methoxyphenyl)-1H-pyrrolo[3,2-c]pyridin-4-yl]amino]phenyl]acetamide]",50 to 100
21,"COc1ccc(-c2nc3cnc(Nc4ccc(NC(C)=O)cc4)cc3n2C)cc1OC [Compound 717, N-[4-[[2-(3,4-dimethoxyphenyl)-1-methyl-imidazo[4,5-c]pyridin-6-yl]amino]phenyl]acetamide]",50 to 100
